The source of these data is publication PMC10363480 (Plant Communications, 2023).

“Also recorded” adds a separate entry of the source.

One assay deals with mitochondria or chloroplast of Chlamydomonas reinhardtii. As to the kind of experiment: Subcellular localization of Venus reporter by epifluorescence microscopy (manual targeting assignment). As to conditions: 15 N-terminal residues of RCA1-cTP added, no C-terminal element; Figure 2. It counts as cell-based. From the text: In a bid to keep peptidase recognition sites intact, C-terminal elements were designed to start 10 residues upstream of the cleavage site, even though this slightly truncates TP helices. Peptides carrying the 15-amino-acid cTP N-terminus (cTP-N) will be denoted ^cP. Similarly, peptides with C-terminal elements from RCA1-cTP (cTP-C) or CAG2-mTP (mTP-C) will be denoted P^c or P^m, respectively. Peptide variants are used to drive the subcellular localization of a Venus fluorescent reporter protein, which was assessed using fluorescence microscopy; in Figure 2, an executive overview of observed Venus localization is presented for all constructs. […] Here, we use automated image segmentation to validate our subcellular localization assessment (Supplemental Figure 2, Supplemental text). […] The reader will be asked to return to Figure 2 throughout, with Figures 3 and 4 providing selected micrographs as examples highlighting particular points of interest.
Chlamydomonas TP sequences were amplified from genomic DNA extracted from strain T222+ (CC-5101). Templates for codon-optimized HA-RAMP, RP, and R→K modified TP sequences were obtained by gene synthesis (Eurofins Genomics). Correct assembly was verified by sequencing (Eurofins Genomics). Linear transformation cassettes were generated through restriction digestion with EcoRV (New England Biolabs).
Constructs were transformed into wild-type strain T222+ (CC-5101) using a protocol described previously ([Onishi and Pringle, 2016]), except using 4 μl of DNA at 2 μg/μl.
Strains with suspected mitochondrial targeting were treated with 0.1 μM MitoTracker Red CMXRos (Thermo Fisher Scientific) in growth medium for 30 min in the dark and washed with TAP prior to taking images.
Legend for Fig. S3 – S20. Three independent transformant lines (Strains 1-3) are shown for each combination of modifications (A-L), represented by a cartoon and a shorthand description (cf. Fig.
2). Where a construct was interpreted as generating reporter localization in mitochondria or […]
Epifluorescence microscopy images of typical cells for each strain are shown. MitoTracker fluorescence, false-coloured in cyan, indicates the position of mitochondria (although parts of the cell exterior are sometimes also stained). False-coloured yellow fluorescence from the Venus channel reports on the subcellular localization of the fluorescent reporter. Chlorophyll autofluorescence, shown in magenta, indicates the location of the chloroplast. Scale bars are 5µm. Brightness (Br.) was adjusted for clarity: fluorescence intensity values were restricted to the range shown for each channel by matching coloured rectangles. Intensity scales to 0 at the bottom of the panel, and to 65535 at the top.
On the right-hand side, quantitative information associated with each construct is shown. Data was normalized such that averages range from 0 to 1 across all constructs (cf. Fig S2). Individual cell measurements may exceed this range; for clarity, the range shown here is limited to -0.5 to 1.5, with outliers that have more extreme values shown as lying beyond a dashed line. Strain 1 is plotted as circles, strain 2 as squares, and strain 3 as diamonds. Venus: Fluorescence plate reader data of transformants screened for this construct (Venus fluorescence, accounting for cell density using linear regression of OD750 and chlorophyll fluorescence trained on ‘no venus’ control transformants). Transformants that were not selected after screening are shown as small grey circles. A colour code ranging from white (low Venus fluorescence) to black (high Venus fluorescence) is used for strains 1-3 and the average thereof. Automated image quantification data: pyr/chl: Venus channel signal in the pyrenoid relative to in the chlorophyll region; mt/cell: Venus channel signal in mitochondria relative to the whole cell. Each point corresponds to a single cell.
The colour code code is the same as that below distributions in Fig. S2, i.e. blue highlights the […]
Regarding “GKIPVKAIKKAGAAIGKGLRAINIASTAHDVYSFFKPKHKKK [SIM, SI moricin, HA-RAMP antimicrobial peptide, reference compound]”, the “chloroplast targeting upon sole addition of cTP-N (^cP)” value is given as “at least partial chloroplast targeting; also recorded: generated chloroplast targeting”.

The assay is the same for the next values; noted with them: C-terminal element of CAG2-mTP added to the named peptide; Figure 2 rows C and D; bare name = K and R versions.
“SFLTTFKDLAIKAAKSAGQSVLSTLSCKLSNTC [B2I, brevinin-2ISb, HA-RAMP antimicrobial peptide, reference compound]”: the “mitochondrial targeting upon addition of mTP-C (P^m)” value was “continued targeting”.

The assay is the same for the next values; noted with them: C-terminal element of RCA1-cTP added to the named peptide; Figure 2 rows E and F; bare name = K and R versions.
Consider “KYYGNGVSCNKKGCSVDWGKAIGIIGNNAAANLTTGGKAGWKG [EHF, enterocin HF, HA-RAMP antimicrobial peptide, reference compound]”, for which the “chloroplast targeting upon addition of cTP-C (P^c)” value is “enabled chloroplast targeting”.

Staying with this assay, now noted: C-terminal element of RCA1-cTP added; Figure 2 rows E and F.
Turning to “SFLTTFKDLAIKAAKSAGQSVLSTLSCKLSNTC [B2I, brevinin-2ISb, HA-RAMP antimicrobial peptide, reference compound]”, the “mitochondrial localization upon addition of cTP-C (P^c)” value is “compatible with mitochondrial localization”.

Staying with this assay, now noted: Figure 2; bare name = K and R versions.
“KYYGNGVSCNKKGCSVDWGKAIGIIGNNAAANLTTGGKAGWKG [EHF, enterocin HF, HA-RAMP antimicrobial peptide, reference compound]”: the “targeting when combining cTP-N with mTP-C (^cP^m)” value was “chloroplast targeting”.

“GKIPVKAIKKAGAAIGKGLRAINIASTAHDVYSFFKPKHKKK [SIM, SI moricin, HA-RAMP antimicrobial peptide, reference compound]”: the “targeting when combining cTP-N with mTP-C (^cP^m)” value is “chloroplast targeting”.

The same assay, now with this note: manual targeting assignment of the Venus reporter construct in Chlamydomonas: Neither / Mitochondria / Chloroplast / Dual, (partial) = partial targeting.
For the sequence “MQVTMKSSAVSGQRVRYYGNGVSCNRRGCSVDWGRAIGIIGNNAAANLTTGGRAGWRGSVRRAQLQVVASSRKQMGRWRSIDAGVDASDDQ [c.EHF.R.c]”, the Localisation result was “Chloroplast”.

Turning to “MQVTMKSSAVSGQRVMLKKVGQSLVPFAKAGSVRRAQLQVVASSRKQMGRWRSIDAGVDASDDQ [c.MH.K.c]”, the Localisation result is reported as “Chloroplast”.

As for “MRYYGNGVSCNRRGCSVDWGRAIGIIGNNAAANLTTGGRAGWRGLTQTAESFRGVSSQFFDAPNGPSVKQVLIEDEW [EHF.R.m]”, the Localisation result is given as “Chloroplast”.

On to “MGRIPVRAIRRAGAAIGRGLRAINIASTAHDVYSFFRPRHRRR [SIM.R]”, for which the Localisation result is “Neither”.

Consider “MLKRVGQSLVPFARAGSVRRAQLQVVASSRKQMGRWRSIDAGVDASDDQ [MH.R.c]”, for which the Localisation entry was “Dual”.

In the case of “MQVTMKSSAVSGQRVALWRTMLRRLGTMALHAGRAAFGAAADTISQSVRRAQLQVVASSRKQMGRWRSIDAGVDASDDQ [c.DDM.R.c]”, the Localisation result is “Chloroplast”.

With “MQVTMKSSAVSGQRVMLKKVGQSLVPFAKAGLTQTAESFKGVSSQFFDAPNGPSVKQVLIEDEW [c.MH.K.m]”, the Localisation entry is on record as “Neither”.

For the sequence “MGGARVATRLTQTAESFRGVSSQFFDAPNGPSVKQVLIEDEW [CH.R.m]”, the Localisation entry was “Neither”.

As to MLKKVGQSLVPFAKAG [MH.K], the Localisation result is “Neither”.

Regarding “MLKKVGQSLVPFAKAGSVRRAQLQVVASSRKQMGRWRSIDAGVDASDDQ [MH.K.c]”, the Localisation entry is “Dual”.

For MGGAKVATK [CH.K], the Localisation entry is listed as “Neither”.

On to “MSFLTTFRDLAIRAARSAGQSVLSTLSCRLSNTC [B2I.R]”, for which the Localisation entry is reported as “Mitochondria”.

For the sequence “MALWRTMLRRLGTMALHAGRAAFGAAADTISQLTQTAESFRGVSSQFFDAPNGPSVKQVLIEDEW [DDM.R.m]”, the Localisation result is listed as “Neither”.

The same assay, now with this note: peptide inserted upstream of Venus, stable Chlamydomonas lines, epifluorescence, MitoTracker / chlorophyll / pyrenoid co-localization, three independent insertion lines.
Turning to “SFLTTFKDLAIKAAKSAGQSVLSTLSCKLSNTC [B2I, brevinin-2ISb, HA-RAMP antimicrobial peptide, reference compound]”, the “organelle targeting (Venus reporter localization) by the construct as labelled” value is given as “mitochondrial localization”.

Still in this assay, the particulars now being: peptide-Venus reporter construct expressed in Chlamydomonas reinhardtii; manual targeting assignment (Neither / Mitochondria / Chloroplast / Dual; partial = partial targeting).
Regarding “MQVTMKSSAVSGQRVALWMTLLKKVLKAAAKAALNAVLVGANA [c.DS4.K]”, the Localisation result was “Neither”.

“MALWMTLLKKVLKAAAKAALNAVLVGANALTQTAESFRGVSSQFFDAPNGPSVKQVLIEDEW [DS4.K.m]”: the Localisation result is “Neither”.

In the case of “MQVTMKSSAVSGQRVMKYYGNGVHCTKSGCSVNWGEAFSAGVHRLANGGNGFWLTQTAESFRGVSSQFFDAPNGPSVKQVLIEDEW [c.LCA.K.m]”, the Localisation entry is listed as “Chloroplast”.

For “MQVTMKSSAVSGQRVGIGRFLHSARRFGRAFVGEIMNSLTQTAESFRGVSSQFFDAPNGPSVKQVLIEDEW [c.MII.R.m]”, the Localisation result is “Dual”.

On to “MQVTMKSSAVSGQRVMGLFSRFNRRRIRSGLIRIIRTAGREAGLEALRTGIDVIGCRIRGECSVRRAQLQVVASSRKQMGRWRSIDAGVDASDDQ [c.E1S.R.c]”, for which the Localisation result is “Chloroplast”.

“MQVTMKSSAVSGQRVGIGRFLHSARRFGRAFVGEIMNS [c.MII.R]”: the Localisation result was “Mitochondria”.

For the sequence MGIGRFLHSARRFGRAFVGEIMNS [MII.R], the Localisation entry was “Mitochondria”.

Turning to “MQVTMKSSAVSGQRVMVNYGNGVSCSRTRCSVNWGIITHQAFRVTSGVASGSVRRAQLQVVASSRKQMGRWRSIDAGVDASDDQ [c.B15.R.c]”, the Localisation entry was “Chloroplast”.

For MALWMTLLKKVLKAAAKAALNAVLVGANA [DS4.K], the Localisation entry is “Neither”.

Still in this assay, the particulars now being: targeting of the Venus reporter fused to the peptide, expressed in Chlamydomonas reinhardtii; manual assignment from epifluorescence microscopy; full or partial.
Regarding “MQVTMKSSAVSGQRVMGLLLDTLKGAAKDIAGIALEKLKCKITGCKPLTQTAESFRGVSSQFFDAPNGPSVKQVLIEDEW [c.R2G.K.m]”, the Localisation entry is “Mitochondria”.

For “MQVTMKSSAVSGQRVALWMTLLRRVLRAAARAALNAVLVGANALTQTAESFRGVSSQFFDAPNGPSVKQVLIEDEW [c.DS4.R.m]”, the Localisation entry is listed as “Neither”.

On to “MSFLTTFKDLAIKAAKSAGQSVLSTLSCKLSNTC [B2I.K]”, for which the Localisation result was “Mitochondria”.

“MQVTMKSSAVSGQRVMALWKTMLKKLGTMALHAGKAAFGAAADTISQ [c.DDM.K]”: the Localisation entry is listed as “Neither”.

In the case of “MGLLLDTLKGAAKDIAGIALEKLKCKITGCKP [R2G.K]”, the Localisation result is “Neither”.

As to “MQVTMKSSAVSGQRVMGLFSRFNRRRIRSGLIRIIRTAGREAGLEALRTGIDVIGCRIRGECLTQTAESFRGVSSQFFDAPNGPSVKQVLIEDEW [c.E1S.R.m]”, the Localisation entry was “Chloroplast”.

Turning to “MSFLTTFKDLAIKAAKSAGQSVLSTLSCKLSNTCLTQTAESFRGVSSQFFDAPNGPSVKQVLIEDEW [B2I.K.m]”, the Localisation entry is “Mitochondria”.

“MDEVNNDNCRIKFKGDISSESDKMNINYLTQTAESFRGVSSQFFDAPNGPSVKQVLIEDEW [RP2.K.m]”: the Localisation entry is reported as “Neither”.

For “MQVTMKSSAVSGQRVDEVNNDNCRIKFKGDISSESDKMNINY [c.RP2.K]”, the Localisation entry is listed as “Neither”.

Turning to “MGWIRDFGKRIERVGQHTRDATIQTIAVAQQAANVAATLKGSVRRAQLQVVASSRKQMGRWRSIDAGVDASDDQ [S1D.K.c]”, the Localisation entry was “Chloroplast”.

With “MQVTMKSSAVSGQRVMGLFSRFNRRRIRSGLIRIIRTAGREAGLEALRTGIDVIGCRIRGEC [c.E1S.R]”, the Localisation result is “Chloroplast”.

“MQVTMKSSAVSGQRVSVRRAQLQVVASSRKQMGRWRSIDAGVDASDDQ [c.-.c]”: the Localisation entry was “Chloroplast (partial)”.

For “MSFLTTFKDLAIKAAKSAGQSVLSTLSCKLSNTCSVRRAQLQVVASSRKQMGRWRSIDAGVDASDDQ [B2I.K.c]”, the Localisation entry was “Mitochondria”.

In the case of “MQVTMKSSAVSGQRVMGLLLDTLKGAAKDIAGIALEKLKCKITGCKP [c.R2G.K]”, the Localisation result is “Mitochondria (partial)”.

For “MQVTMKSSAVSGQRVMWLSRTARRLENSARRRISEGIAIAIRGGSR [c.CP3.R]”, the Localisation result was “Chloroplast (partial)”.

As to “MQVTMKSSAVSGQRVALWMTLLKKVLKAAAKAALNAVLVGANASVRRAQLQVVASSRKQMGRWRSIDAGVDASDDQ [c.DS4.K.c]”, the Localisation entry is listed as “Neither”.

On to “MQVTMKSSAVSGQRVMKYYGNGVSCNKKGCSVDWGKAIGIIGNNAAANLTTGGKAGWKGLTQTAESFRGVSSQFFDAPNGPSVKQVLIEDEW [c.EHF.K.m]”, for which the Localisation result was “Chloroplast”.

On to “MKYYGNGVSCNKKGCSVDWGKAIGIIGNNAAANLTTGGKAGWKGSVRRAQLQVVASSRKQMGRWRSIDAGVDASDDQ [EHF.K.c]”, for which the Localisation result is “Chloroplast (partial)”.

Regarding “MGWIRDFGKRIERVGQHTRDATIQTIAVAQQAANVAATLKG [S1D.K]”, the Localisation entry was “Neither”.
